# Experimental data from ChEMBL document CHEMBL1201862, “PubChem BioAssay data set” (2004).
#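 Five concentrations, 48 hours, 96-well plates. GI50: concentration for 50% inhibition of growth.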 The source made the active and inactive calls. Rule as the data show it: active = GI50 up to about 1.1 µM and inactive = higher.
# Columns and labels:
# Test in all cases: DTP human tumour cell line panel, 48 h
# SK-MEL-2 = system: SK-MEL-2
# T47D = system: T47D
# SN12C = system: SN12C
# UACC-62 = system: UACC-62
# BT-549 = system: BT-549
# U-251 = system: U-251
# NCI-H460 = system: NCI-H460
# CAKI-1 = system: CAKI-1
# COLO 205 = system: COLO 205
# NCI-H23 = system: NCI-H23
# RPMI-8226 = system: RPMI-8226
# KM12 = system: KM12
# IGROV-1 = system: IGROV-1
# OVCAR-5 = system: OVCAR-5
# UACC-257 = system: UACC-257
# SNB-19 = system: SNB-19
# UO-31 = system: UO-31
# OVCAR-8 = system: OVCAR-8
# NCI-H226 = system: NCI-H226
# MDA-N = system: MDA-N
# HT-29 = system: HT-29
# OVCAR-4 = system: OVCAR-4
# M14 = system: M14
# HCT-15 = system: HCT-15
# ACHN = system: ACHN
# HCC 2998 = system: HCC 2998
# K562 = system: K562
# CCRF-CEM = system: CCRF-CEM
# NCI-H522 = system: NCI-H522
# TK-10 = system: TK-10
# SF-295 = system: SF-295
# HL-60 = system: HL-60
# HOP-62 = system: HOP-62
# SF-268 = system: SF-268
# 786-0 = system: 786-0
# Hs-578T = system: Hs-578T
# SF-539 = system: SF-539
# MOLT-4 = system: MOLT-4
# DU-145 = system: DU-145
# OVCAR-3 = system: OVCAR-3
# EKVX = system: EKVX
# Malme-3M = system: Malme-3M
# A549 = system: A549
# MDA-MB-231 = system: MDA-MB-231
# LOX IMVI = system: LOX IMVI
# SK-MEL-5 = system: SK-MEL-5
# MCF7 = system: MCF7
# SK-MEL-28 = system: SK-MEL-28
# NCI/ADR-RES = system: NCI/ADR-RES
# SW-620 = system: SW-620
# MDA-MB-435 = system: MDA-MB-435
# HCT-116 = system: HCT-116
# SR = system: SR
# SK-OV-3 = system: SK-OV-3
# SNB-75 = system: SNB-75
# PC-3 = system: PC-3
# A498 = system: A498
structure (smiles),measurement,setting,value
[O-][S+](Nc1ccccc1)c1ccc(Cl)cc1 (configuration not stated),GI50,SK-MEL-2,> 100 µM (inactive)
same,GI50,T47D,50.1 µM (inactive)
same,GI50,SN12C,> 100 µM (inactive)
same,GI50,UACC-62,14.9 µM (inactive)
same,GI50,BT-549,32.6 µM (inactive)
same,GI50,U-251,23.6 µM (inactive)
same,GI50,NCI-H460,56 µM (inactive)
same,GI50,CAKI-1,> 100 µM (inactive)
same,GI50,COLO 205,> 100 µM (inactive)
same,GI50,NCI-H23,> 100 µM (inactive)
same,GI50,RPMI-8226,> 100 µM (inactive)
same,GI50,KM12,17.5 µM (inactive)
same,GI50,IGROV-1,24.7 µM (inactive)
same,GI50,OVCAR-5,> 100 µM (inactive)
same,GI50,UACC-257,> 100 µM (inactive)
same,GI50,SNB-19,> 100 µM (inactive)
same,GI50,UO-31,44.8 µM (inactive)
same,GI50,OVCAR-8,> 100 µM (inactive)
same,GI50,NCI-H226,> 100 µM (inactive)
same,GI50,MDA-N,> 100 µM (inactive)
same,GI50,HT-29,> 100 µM (inactive)
same,GI50,OVCAR-4,> 100 µM (inactive)
same,GI50,M14,> 100 µM (inactive)
same,GI50,HCT-15,75.2 µM
same,GI50,ACHN,> 100 µM (inactive)
same,GI50,HCC 2998,69.7 µM (inactive)
same,GI50,K562,> 100 µM (inactive)
same,GI50,CCRF-CEM,89.9 µM (inactive)
same,GI50,NCI-H522,73.3 µM (inactive)
same,GI50,TK-10,> 100 µM (inactive)
same,GI50,SF-295,> 100 µM (inactive)
same,GI50,HL-60,> 100 µM (inactive)
same,GI50,HOP-62,> 100 µM (inactive)
same,GI50,SF-268,16.2 µM (inactive)
same,GI50,786-0,> 100 µM (inactive)
same,GI50,Hs-578T,38.1 µM (inactive)
same,GI50,SF-539,18.9 µM (inactive)
same,GI50,MOLT-4,31.4 µM (inactive)
same,GI50,DU-145,91.4 µM (inactive)
same,GI50,OVCAR-3,> 100 µM (inactive)
same,GI50,EKVX,> 100 µM (inactive)
same,GI50,Malme-3M,> 100 µM (inactive)
same,GI50,A549,48.4 µM (inactive)
same,GI50,MDA-MB-231,> 100 µM (inactive)
same,GI50,LOX IMVI,> 100 µM (inactive)
same,GI50,SK-MEL-5,35.9 µM (inactive)
same,GI50,MCF7,> 100 µM (inactive)
same,GI50,SK-MEL-28,> 100 µM (inactive)
same,GI50,NCI/ADR-RES,64.9 µM (inactive)
same,GI50,SW-620,> 100 µM (inactive)
same,GI50,MDA-MB-435,31.4 µM (inactive)
same,GI50,HCT-116,61.5 µM (inactive)
same,GI50,SR,16.4 µM (inactive)
O=[N+]([O-])/C(C(Cl)=C(Cl)Cl)=C(\Nc1cccc2cccnc12)SCc1ccccc1,GI50,SK-MEL-2,12.6 µM (inactive)
same,GI50,T47D,17.7 µM (inactive)
same,GI50,SN12C,25.3 µM (inactive)
same,GI50,UACC-62,23.3 µM (inactive)
same,GI50,BT-549,16.9 µM (inactive)
same,GI50,U-251,16.1 µM (inactive)
same,GI50,NCI-H460,21 µM (inactive)
same,GI50,CAKI-1,20.7 µM (inactive)
same,GI50,COLO 205,18.8 µM (inactive)
same,GI50,NCI-H23,17 µM (inactive)
same,GI50,RPMI-8226,22.3 µM (inactive)
same,GI50,KM12,17.2 µM (inactive)
same,GI50,OVCAR-5,30.8 µM (inactive)
same,GI50,UACC-257,21.5 µM (inactive)
same,GI50,SNB-19,16.7 µM (inactive)
same,GI50,UO-31,18.3 µM (inactive)
same,GI50,NCI-H226,20.3 µM (inactive)
same,GI50,MDA-N,31.1 µM (inactive)
same,GI50,HT-29,23.6 µM (inactive)
same,GI50,OVCAR-4,24.4 µM (inactive)
same,GI50,M14,27.5 µM (inactive)
same,GI50,HCT-15,19.9 µM
same,GI50,ACHN,23.3 µM (inactive)
same,GI50,HCC 2998,18.2 µM (inactive)
same,GI50,K562,13.4 µM (inactive)
same,GI50,CCRF-CEM,14.9 µM (inactive)
same,GI50,SF-295,18.7 µM (inactive)
same,GI50,HOP-62,15.8 µM (inactive)
same,GI50,SF-268,17.3 µM (inactive)
same,GI50,786-0,21.6 µM (inactive)
same,GI50,Hs-578T,< 0.01 µM (active)
same,GI50,SF-539,16.9 µM (inactive)
same,GI50,MOLT-4,2.21 µM (inactive)
same,GI50,DU-145,21.5 µM (inactive)
same,GI50,OVCAR-3,15.5 µM (inactive)
same,GI50,EKVX,21.1 µM (inactive)
same,GI50,SK-OV-3,15.8 µM (inactive)
same,GI50,SNB-75,18.3 µM (inactive)
same,GI50,Malme-3M,15.3 µM (inactive)
same,GI50,A549,31.3 µM (inactive)
same,GI50,MDA-MB-231,27.3 µM (inactive)
same,GI50,MCF7,15.3 µM (inactive)
same,GI50,SK-MEL-28,19 µM (inactive)
same,GI50,PC-3,14.8 µM (inactive)
same,GI50,NCI/ADR-RES,21.2 µM (inactive)
same,GI50,A498,26.7 µM (inactive)
same,GI50,SW-620,18.4 µM (inactive)
same,GI50,MDA-MB-435,21 µM (inactive)
same,GI50,HCT-116,19.8 µM (inactive)
